From patent US20230093099A1, “COMPOUNDS AND METHODS OF TREATING CANCERS” (CULLGEN (SHANGHAI), INC., priority 2019, published 2023)
Like-named read-outs stand apart in the source and are kept apart here.

Key:
Format in all cases: cell-based
GSPT1 = molecular target: T1, GSPT1 (Homo sapiens, UniProt P15170); assay: Immunoblot of GSPT1 protein level in RS4;11 cells; details: 16 hours, immunoblot, read-out: concentration required to reduce GSPT1 by 50% (DC50)
T1 construct: immunoblot of GSPT1 and tubulin expressed in RS4:11 cells; endogenous in cells; host or cells: RS4;11 cells
T1 sequence (P15170 whole entry): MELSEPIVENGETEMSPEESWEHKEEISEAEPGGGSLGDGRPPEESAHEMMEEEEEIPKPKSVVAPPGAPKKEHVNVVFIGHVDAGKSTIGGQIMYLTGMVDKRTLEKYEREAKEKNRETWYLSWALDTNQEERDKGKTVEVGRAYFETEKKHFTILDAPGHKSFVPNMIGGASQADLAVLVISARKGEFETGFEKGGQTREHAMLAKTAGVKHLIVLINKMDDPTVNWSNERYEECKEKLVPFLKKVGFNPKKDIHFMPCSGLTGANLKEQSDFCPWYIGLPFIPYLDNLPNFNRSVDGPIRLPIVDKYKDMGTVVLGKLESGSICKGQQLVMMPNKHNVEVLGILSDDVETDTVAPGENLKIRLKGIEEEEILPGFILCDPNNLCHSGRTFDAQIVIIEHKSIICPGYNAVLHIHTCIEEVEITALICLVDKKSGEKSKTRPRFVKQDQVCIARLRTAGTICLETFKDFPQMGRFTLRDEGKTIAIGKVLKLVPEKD
Description: RS4;11 cells were treated with compounds at indicated concentrations for 16 hours. […] The concentrations required to reduce GSPT1 by 50% (DC50) were below 2 nM for compound JA-189 and 10 nM JA213.
(§1) HEL, RS4;11, MV4;11, Kasumi-1 and other cells were cultured at 37° C. with 5% CO2 in RPMI 1640 or DMEM Medium supplemented with 10% fetal bovine serum. Cells were authenticated using the short tandem repeat (STR) assays. Mycoplasma test results were negative.
(§2) Rabbit anti-JAK1 antibody (3344S), anti-JAK2 antibody (3230S), anti-JAK3 antibody (8827S), anti-TYK2 antibody (14193S), anti-FLT3 antibody (3462S), anti-RET antibody (14556S), anti-phospho-STAT3 (Tyr705) antibody (9145S) and anti-phospho-STAT5 (Tyr694) antibody (4322S) were purchased from Cell Signaling Technology. Rabbit anti-GSPT1 antibody (ab126090) was purchased from Abcam. HRP-conjugated anti-α-tubulin antibody was produced in house. Media and other cell culture reagents were purchased from Thermo Fisher. The CellTiter-Glo Luminescent Assay kit was purchased from Promega.
(§3) Cultured cells were washed with cold PBS once and lysed in cold RIPA buffer supplemented with protease inhibitors and phosphatase inhibitors (Beyotime Biotechnology). The solutions were then incubated at 4° C. for 30 minutes with gentle agitation to fully lyse cells. Cell lysates were centrifuged at 13,000 rpm for 10 minutes at 4° C. and pellets were discarded. Total protein concentrations in the lysates were determined by BCA assays (Beyotime Biotechnology). Cell lysates were mixed with Laemmli loading buffer to 1× and heated at 99° C. for 5 min. Proteins were resolved on SDS-PAGE and visualized by chemiluminescence. Images were taken by a ChemiDoc MP Imaging system (Bio-Rad). Protein bands were quantitated using the accompanied software provided by Bio-Rad.

JAK1 = molecular target: T2, JAK1 (Homo sapiens, UniProt P23458); assay: Immunoblot of JAK1 protein level in RS4;11 cells; details: 24 hours, immunoblot, read-out: concentration required to reduce JAK1 by 50% (DC50)
T2 construct: immunoblot of JAK1/3 proteins expressed in RS4;11 cells; endogenous in cells; host or cells: RS4;11 cells
T2 sequence (P23458 whole entry): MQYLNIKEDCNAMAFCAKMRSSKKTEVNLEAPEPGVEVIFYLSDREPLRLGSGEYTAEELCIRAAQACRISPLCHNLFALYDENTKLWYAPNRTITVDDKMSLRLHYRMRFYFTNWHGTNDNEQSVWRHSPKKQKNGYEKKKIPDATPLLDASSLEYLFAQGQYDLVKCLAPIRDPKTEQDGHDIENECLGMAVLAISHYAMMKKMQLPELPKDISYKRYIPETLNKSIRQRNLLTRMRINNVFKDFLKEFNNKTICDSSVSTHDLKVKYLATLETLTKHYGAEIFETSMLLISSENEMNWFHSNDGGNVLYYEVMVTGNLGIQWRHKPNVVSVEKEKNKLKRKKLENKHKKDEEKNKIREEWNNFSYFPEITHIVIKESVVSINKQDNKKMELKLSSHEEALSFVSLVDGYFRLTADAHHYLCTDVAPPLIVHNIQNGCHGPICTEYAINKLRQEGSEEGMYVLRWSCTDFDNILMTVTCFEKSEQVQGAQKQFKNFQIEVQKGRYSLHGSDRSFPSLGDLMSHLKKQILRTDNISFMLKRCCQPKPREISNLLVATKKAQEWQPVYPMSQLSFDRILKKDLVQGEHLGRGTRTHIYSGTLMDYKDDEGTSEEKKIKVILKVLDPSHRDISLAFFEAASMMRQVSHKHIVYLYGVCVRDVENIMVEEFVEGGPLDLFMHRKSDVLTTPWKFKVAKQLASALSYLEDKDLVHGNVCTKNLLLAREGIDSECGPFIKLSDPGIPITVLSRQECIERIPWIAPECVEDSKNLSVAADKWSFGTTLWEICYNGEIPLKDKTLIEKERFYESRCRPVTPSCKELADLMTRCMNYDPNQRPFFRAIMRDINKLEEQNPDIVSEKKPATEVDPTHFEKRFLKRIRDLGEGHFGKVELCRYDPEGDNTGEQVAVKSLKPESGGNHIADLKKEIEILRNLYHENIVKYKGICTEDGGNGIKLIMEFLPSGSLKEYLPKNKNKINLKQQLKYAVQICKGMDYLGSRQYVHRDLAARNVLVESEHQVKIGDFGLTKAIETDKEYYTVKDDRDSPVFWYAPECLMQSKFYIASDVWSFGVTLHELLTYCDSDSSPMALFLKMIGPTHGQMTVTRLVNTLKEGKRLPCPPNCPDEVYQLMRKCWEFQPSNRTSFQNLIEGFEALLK
Description: RS4;11 cells were treated with compounds at indicated concentrations for 24 hours. […] The concentrations required to reduce JAK1 by 50% (DC50) were below 5 nM and 35 nM for compound JA-189 and JA213, respectively.
as §1, §2, §3

RS4;11 cells = assay: Cell viability assay (CellTiter-Glo) in RS4;11 cells; details: Homo sapiens, 72 h
Method in brief: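 Three-day compound treatment of RS4;11 ALL cells (5000/well, 3-fold dilution series of 8 or 12 points), with IC50 from a nonlinear least-squares fit to CellTiter-Glo viability data.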

[1] = RS4;11 cells, cell viability, 3 days, CellTiter-Glo, read-out: IC50
[2] = RS4;11 ALL cells treated for three days, read-out: cell viability inhibition IC50

SMILES | IC50 (RS4;11 cells; [1]) | also measured
CS(=O)(=O)c1ccc(-c2cccc3nc(Nc4ccc(N5CCN(CC(=O)NCCCCCCCCNc6ccc7c(c6)C(=O)N(C6CCC(=O)NC6=O)C7=O)CC5)cc4)nn23)cc1 (centres unmarked) [JA213] |  | DC50 (GSPT1): < 10 nM; DC50 (JAK1): < 35 nM
Cc1cnc(Nc2ccc(N3CCN(C(=O)CCOCCNc4cccc5c4C(=O)N(C4CCC(=O)NC4=O)C5=O)CC3)cc2)nc1Nc1cccc(S(=O)(=O)NC(C)(C)C)c1 (centres unmarked) [JA-017, N-(tert-Butyl)-3-((2-((4-(4-(3-(2-((2-(2,6-dioxopiperidin-3-yl)-1,3-dioxoisoindolin-4-yl)amino)ethoxy)propanoyl)piperazin-1-yl)phenyl)amino)-5-methylpyrimidin-4-yl)amino)benzenesulfonamide] | > 10000 nM | 
Cc1cnc(Nc2ccc(N3CCN(CC(=O)NCCC(=O)N[C@H](C(=O)N4C[C@H](O)C[C@H]4C(=O)NCc4ccc(-c5scnc5C)cc4)C(C)(C)C)CC3)cc2)nc1Nc1cccc(S(=O)(=O)NC(C)(C)C)c1 [JA-098, (2S,4R)-1-((S)-2-(3-(2-(4-(4-((4-((3-(N-(tert-Butyl)sulfamoyl)phenyl)amino)-5-methylpyrimidin-2-yl)amino)phenyl)piperazin-1-yl)acetamido)propanamido)-3,3-dimethylbutanoyl)-4-hydroxy-N-(4-(4-methylthiazol-5-yl)benzyl)pyrrolidine-2-carboxamide] | > 10000 nM | 
Cc1cnc(Nc2ccc(N3CCN(C(=O)COCC(=O)N[C@H](C(=O)N4C[C@H](O)C[C@H]4C(=O)NCc4ccc(-c5scnc5C)cc4)C(C)(C)C)CC3)cc2)nc1Nc1cccc(S(=O)(=O)NC(C)(C)C)c1 [JA-030, (2S,4R)-1-((S)-2-(2-(2-(4-(4-((4-((3-(N-(tert-Butyl)sulfamoyl)phenyl)amino)-5-methylpyrimidin-2-yl)amino)phenyl)piperazin-1-yl)-2-oxoethoxy)acetamido)-3,3-dimethylbutanoyl)-4-hydroxy-N-(4-(4-methylthiazol-5-yl)benzyl)pyrrolidine-2-carboxamide] | > 10000 nM | 
Cc1cnc(Nc2ccc(N3CCN(C(=O)COCCOCCOCCOCCOCC(=O)N[C@H](C(=O)N4C[C@H](O)C[C@H]4C(=O)NCc4ccc(-c5scnc5C)cc4)C(C)(C)C)CC3)cc2)nc1Nc1cccc(S(=O)(=O)NC(C)(C)C)c1 [JA-036, (2S,4R)-1-((S)-2-(tert-Butyl)-20-(4-(4-((4-((3-(N-(tert-butyl)sulfamoyl)phenyl)amino)-5-methylpyrimidin-2-yl)amino)phenyl)piperazin-1-yl)-4,20-dioxo-6,9,12,15,18-pentaoxa-3-azaicosanoyl)-4-hydroxy-N-(4-(4-methylthiazol-5-yl)benzyl)pyrrolidine-2-carboxamide] | > 10000 nM | 
CS(=O)(=O)c1ccc(-c2cccc3nc(Nc4ccc(N5CCN(CC(=O)NCCCCCCNc6cccc7c6C(=O)N(C6CCC(=O)NC6=O)C7=O)CC5)cc4)nn23)cc1 (centres unmarked) [JA-112, N-(6-((2-(2,6-Dioxopiperidin-3-yl)-1,3-dioxoisoindolin-4-yl)amino)hexyl)-2-(4-(4-((5-(4-(methylsulfonyl)phenyl)-[1,2,4]triazolo[1,5-a]pyridin-2-yl)amino)phenyl)piperazin-1-yl)acetamide] | > 10000 nM | 
O=C1CCC(N2C(=O)c3cccc(NCCCCCCCC(=O)N4CCC(n5cc(-c6cnc7cccc(-c8cc(F)c(CN9CCOCC9)c(F)c8)c7n6)cn5)CC4)c3C2=O)C(=O)N1 (centres unmarked) [JA-038, 4-[[8-[4-[4-[8-[3,5-Difluoro-4-(morpholinomethyl)phenyl]quinoxalin-2-yl]pyrazol-1-yl]-1-piperidyl]-8-oxo-octyl]amino]-2-(2,6-dioxo-3-piperidyl)isoindoline-1,3-dione] | > 10000 nM | 
Cc1cnc(Nc2ccc(N3CCN(CC(=O)NCCCCCCCCNc4cccc5c4C(=O)N(C4CCC(=O)NC4=O)C5=O)CC3)cc2)nc1Nc1cccc(S(=O)(=O)NC(C)(C)C)c1 (centres unmarked) [JA-096, 2-(4-(4-((4-((3-(N-(tert-Butyl)sulfamoyl)phenyl)amino)-5-methylpyrimidin-2-yl)amino)phenyl)piperazin-1-yl)-N-(8-((2-(2,6-dioxopiperidin-3-yl)-1,3-dioxoisoindolin-4-yl)amino)octyl)acetamide] | 158 nM | 

Continued, in another order:

IC50 (RS4;11 cells; [1]) | SMILES | also measured
> 10000 nM | Cc1ncsc1-c1ccc(CNC(=O)[C@@H]2C[C@@H](O)CN2C(=O)[C@@H](NC(=O)CCOCCOCCOCCOCCNC(=O)CN2CCC(n3cc(-c4cnc5cccc(-c6cc(F)c(CN7CCOCC7)c(F)c6)c5n4)cn3)CC2)C(C)(C)C)cc1 [JA-167, (2S,4R)-1-((S)-20-(tert-Butyl)-1-(4-(4-(8-(3,5-difluoro-4-(morpholinomethyl)phenyl)quinoxalin-2-yl)-1H-pyrazol-1-yl)piperidin-1-yl)-2,18-dioxo-6,9,12,15-tetraoxa-3,19-diazahenicosan-21-oyl)-4-hydroxy-N-(4-(4-methylthiazol-5-yl)benzyl)pyrrolidine-2-carboxamide] | 
3.8 nM | O=C1CCC(N2Cc3ccc(CCCCCCC(=O)N4CCC(n5cc(-c6cnc7cccc(-c8cc(F)c(CN9CCOCC9)c(F)c8)c7n6)cn5)CC4)cc3C2=O)C(=O)N1 (centres unmarked) [JA-269, 3-(6-(7-(4-(4-(8-(3,5-difluoro-4-(morpholinomethyl)phenyl)quinoxalin-2-yl)-1H-pyrazol-1-yl)piperidin-1-yl)-7-oxoheptyl)-1-oxoisoindolin-2-yl)piperidine-2,6-dione] | 
63.5 nM | CS(=O)(=O)c1ccc(-c2cccc3nc(Nc4ccc(N5CCN(CC(=O)NCCCCCCCNc6ccc7c(c6)C(=O)N(C6CCC(=O)NC6=O)C7=O)CC5)cc4)nn23)cc1 (centres unmarked) [JA-214] | IC50 (RS4;11 cells; [2]): < 100 nM
> 10000 nM | Cc1ncsc1-c1ccc(CNC(=O)[C@@H]2C[C@@H](O)CN2C(=O)[C@@H](NC(=O)COCCOCCOCCNC(=O)CN2CCC(n3cc(-c4cnc5cccc(-c6cc(F)c(CN7CCOCC7)c(F)c6)c5n4)cn3)CC2)C(C)(C)C)cc1 [JA-157, (2S,4R)-1-((S)-2-(tert-Butyl)-17-(4-(4-(8-(3,5-Difluoro-4-(morpholinomethyl)phenyl)quinoxalin-2-yl)-1H-pyrazol-1-yl)piperidin-1-yl)-4,16-dioxo-6,9,12-trioxa-3,15-diazaheptadecanoyl)-4-hydroxy-N-(4-(4-methylthiazol-5-yl)benzyl)pyrrolidine-2-carboxamide] | 
> 10000 nM | CS(=O)(=O)c1ccc(-c2cccc3nc(Nc4ccc(N5CCN(C(=O)CCCCC#Cc6ccc7c(c6)C(=O)N(C6CCC(=O)NC6=O)C7)CC5)cc4)nn23)cc1 (centres unmarked) [JA-262, 3-(6-(7-(4-(4-((5-(4-(Methylsulfonyl)phenyl)-[1,2,4]triazolo[1,5-a]pyridin-2-yl)amino)phenyl)piperazin-1-yl)-7-oxohept-1-yn-1-yl)-1-oxoisoindolin-2-yl)piperidine-2,6-dione] | 
78.3 nM | O=C(CN1CCC(n2cc(-c3cnc4cccc(-c5cc(F)c(CN6CCOCC6)c(F)c5)c4n3)cn2)CC1)NCCCCCCCNc1ccc2c(c1)C(=O)N(C1CCC(=O)NC1=O)C2=O (centres unmarked) [JA-179, 2-(4-(4-(8-(3,5-difluoro-4-(morpholinomethyl)phenyl)quinoxalin-2-yl)-1H-pyrazol-1-yl)piperidin-1-yl)-N-(7-((2-(2,6-dioxopiperidin-3-yl)-1,3-dioxoisoindolin-5-yl)amino)heptyl)acetamide] | IC50 (RS4;11 cells; [2]): < 100 nM
